“Also recorded” adds a separate entry of the source.

Experiment [1] deals with spleen cells of HLA-A2/DR1 transgenic mice immunized with MAGE-A9 full length recombinant protein. Briefly: IFN-γ ELISPOT, MAGE-A9 immunogenic HLA-A2 peptides. The class given is cell-based. To be noted: for IFN-γ response (ELISPOT): HLA-A2/DR1 mice, three experiments. The protocol: FIGS. 11A and 11B depict IFN-γ ELISPOT results of 1st experiment for the MAGE-A9 immunogenic HLA-A2 peptides. Induction of IFN-γ response induced against HLA-A2 peptides of MAGE-A9 as detected by IFN-γ ELISPOT assay. A group of 10 mice was immunized with MAGE-A9 full length recombinant protein admixed with poly(I:C). Mice were sacrificed 34 days after 1st immunization and spleen cells were tested in IFN-γ ELISPOT after stimulation with dendritic cells loaded with the individual candidate or control peptides (FIG. 11A) or after direct stimulation with the individual candidate or control peptides (FIG. 11B). DCE: Dendritic cell empty; NS: Non stimulated; INF, gp100 and EBV: irrelevant HLA-A2 control peptides. Student T-test *p<0.05; ** p<0.005; *** p<0.0005; **** p<0.00005.
(§1) IFN-γ ELISPOTs was performed to measure antigen-specific T-cell activation upon stimulation with peptides containing the putative epitopes. […]
(§2) Groups of ten 6-12 weeks-old HLA-A1, HLA-A2/DR1, HLA-A24, HLA-All (as a surrogate for HLA-A3 allele) and HLA-B7 male/female mice were immunized three times s.c. and i.p., 14 days apart, with 30 μg of MAGE-A9 his-tag full-length recombinant protein admixed with 50 μg (s.c.) or 200 μg (i.p.) of Poly(I:C) in a final volume of 100 μl. On day 34, mice were sacrificed. Splenocytes were isolated from spleens and treated with ACK lysis buffer to lyse contaminating erythrocytes. Splenocytes were stimulated with the candidate peptides alone or with dendritic cells loaded with the candidate peptides. The immune response was measured using IFN-γ ELISPOT assays (BD). Then spots were counted using an ELISPOT counter (CTL Analyzer) and enumerated as number of spot-forming units (SFU) per well. Each experiment was repeated two or three times (except for the experiment with HLA-A11 (as a surrogate for HLA-A3 allele) mice which was done only once).
Student's t-tests were performed to compare two groups (non-stimulated versus stimulated with test peptide). To indicate significance, p-values are represented in the figures by * p<0.05, ** p<0.01, *** p<0.001, and **** p=0.0001. All data are presented as means with standard error of the mean (SEM).
The experiment was repeated three times for a total number of 30 mice (FIGS. 11, 12, and 13). The immune response for peptides 111, 24, 223 and 270 via Chromium 51 (^51Cr) release assays (CTL assays) is also presented in Example 6. […] These tests offer a very high sensitivity, which explains why the INF-Y response for these peptides appears to be weaker, although the peptides are responsive in other assays (see Examples 6).

For experiment [2], the system named is spleen cells of HLA-A1 transgenic mice immunized with MAGE-A9 full length recombinant protein. Briefly: IFN-γ ELISPOT, MAGE-A9 immunogenic HLA-A1 peptides. The class given is cell-based. As to the method:
FIGS. 14A and 14B depict IFN-γ ELISPOT results of 1st experiment for the MAGE-A9 immunogenic HLA-A1 peptides. IFN-γ response induced by HLA-A1 candidate peptides of MAGE-A9 as detected by IFN-γ ELISPOT assay. Two groups of 3 and 5 mice were immunized respectively with poly(I:C) alone (as control; bar on the left) and with MAGE-A9 full-length recombinant protein admixed with poly(I:C) (bar on the right). Mice were sacrificed 34 days after 1st immunization and spleen cells were tested in IFN-γ ELISPOT after stimulation with dendritic cells loaded with the individual candidate or control peptides (FIG. 14A) or after direct stimulation with the individual candidate or control peptides (FIG. 14B). DCE: Dendritic cell empty; NS: Non stimulated; Ctrl HLA-A1; irrelevant control HLA-A1 peptide. Student T-test *p<0.05; ** p<0.005; *** p<0.0005; **** p<0.00005. […]
Groups of ten 6-12 weeks-old HLA-A1, HLA-A2/DR1, HLA-A24, HLA-All (as a surrogate for HLA-A3 allele) and HLA-B7 male/female mice were immunized three times s.c. and i.p., 14 days apart, with 30 μg of MAGE-A9 his-tag full-length recombinant protein admixed with 50 μg (s.c.) or 200 μg (i.p.) of Poly(I:C) in a final volume of 100 μl. […] The immune response was measured using IFN-γ ELISPOT assays (BD). Then spots were counted using an ELISPOT counter (CTL Analyzer) and enumerated as number of spot-forming units (SFU) per well. […]

Experiment [3] deals with spleen cells of HLA-A11 transgenic mice immunized with MAGE-A9 full length recombinant protein. Briefly: IFN-γ ELISPOT, MAGE-A9 immunogenic HLA-A3/A11 peptides. The class given is cell-based.
Source text: FIGS. 23A and 23B depict IFN-γ ELISPOT results of the experiment for the MAGE-A9 immunogenic HLA-A3/A11 peptides. IFN-γ response induced by HLA-A3 candidate peptides of MAGE-A9 as detected by IFN-γ ELISPOT assay. Two group of 3 and 10 HLA-A11 transgenic mice were immunized respectively with DPX-Empty alone (as control; bar on the left) and with MAGE-A9 full-length recombinant protein admixed with poly(I:C) (bar on the right). Mice were sacrificed 36 days after 1st immunization and spleen cells were tested in IFN-γ ELISPOT after stimulation with dendritic cells loaded with the individual candidate or control peptides (FIG. 23A) or after direct stimulation with the individual candidate or control peptides (FIG. 23B). DCE: Dendritic cell empty; NS: Non stimulated; A3-Ctrl; irrelevant control HLA-A3 peptide.
as §1, §2
(§3) Student's t-tests were performed to compare two groups (non-stimulated versus stimulated with test peptide). […]

The subject of experiment [4] is peptide-loaded RMA-S HHD cells. Briefly: Chromium 51 release assay (CTL assay). The class given is cell-based, mice. To be noted: for CTL response (51Cr-release): effector:target 75:1, 50:1, 25:1, mice immunized with recombinant MAGE-A9 and poly(I:C).
Experiment [5] addresses MHC class 1 allele A*02:01 (Homo sapiens, UniProt P04439, D140Y/D185E/D98H/E176V/E277Q/G131W/G231S/I119V/I121R/I166T/I218V/L300P/L318F/N151K/N90K/P208A/P217A/Q86G/Q94H/R138H/R169H/T345S). Briefly: REVEAL binding of HLA-A2 binding peptides. To be noted: for binding to MHC class 1 allele A*02:01 (in words): Higher REVEAL score.
Another experiment addresses T1, HLA-A2 (Homo sapiens, UniProt P04439, D140Y/D185E/D98H/E176V/E277Q/G131W/G231S/I119V/I121R/I166T/I218V/L300P/N151K/N90K/P208A/P217A/Q86G/Q94H/R138H/R169H).
T1 construct: purchased Biolegend, USA
Briefly: Flex-T in vitro HLA binding assay (HLA class I ELISA). To be noted: Flex-T monomer peptide exchange, β2-microglobulin ELISA. The protocol: Internal in vitro assay that assesses the binding of each of the peptides to HLA-A2 as a part of the potency assay development was performed using the Flex-T in vitro binding assay.
Flex-T technology (Biolegend, USA) offers the opportunity to quantitatively measure the binding affinity of peptides to their respective MHC Class I receptors (In this case HLA-A2). Flex-T was made of MHC monomers loaded with a peptide that can be degraded using a UV light source. This allowed for a peptide exchange when the UV irradiation was done in the presence of the peptide of interest which is not UV-labile.
The binding of the peptide of interest to the Flex-T monomer was quantified using an HLA class I ELISA method based on the detection of β2-microglobulin subunit of HLA class I complexes, after capturing the complex through the conjugated biotin. To this end, biotinylated HLA class I monomer-peptide complex was first captured in streptavidin coated microtiter wells. Subsequently, lRP-conjugated anti-human 02-microglobulin was added to detect intact HLA class I complexes. Only intact HLA class I complexes were recognized.
The relative potency was then calculated compared to a reference lot using parallel line analysis as per USP <1034>.

In experiment [6] the test system is spleen cells of HLA-A24 transgenic mice immunized with MAGE-A9 full length recombinant protein. Briefly: IFN-γ ELISPOT, MAGE-A9 immunogenic HLA-A24 peptides. The class given is cell-based. To be noted: three experiments. The protocol:
FIGS. 16A and 16B depict IFN-γ ELISPOT results of 1st experiment for the MAGE-A9 immunogenic HLA-A24 peptides. IFN-γ response induced against HLA-A24 candidate peptides of MAGE-A9 as detected by IFN-γ ELISPOT assay. Two group of 3 and 5 mice were immunized respectively with poly(I:C) alone (as control; bar on the left) and with MAGE-A9 full-length recombinant protein admixed with poly(I:C) (bar on the right). Mice were sacrificed 34 days after 1st immunization and spleen cells were tested in IFN-γ ELISPOT after stimulation with dendritic cells loaded with the individual candidate or control peptides (FIG. 16A) or after direct stimulation with the individual candidate or control peptides (FIG. 16B). DCE: Dendritic cell empty; NS: Non stimulated; A24-Ctrl; irrelevant control HLA-A24 peptide. Student T-test *p<0.05; ** p<0.005; *** p<0.0005; **** p<0.00005.
as §1, §2, §3

For the sequence “ALLIIVLGV [compound 199, MAGE-A9 peptide antigen]”, the “IFN-γ response (ELISPOT)” value in experiment [1] was “highest”.
As for EVDPAGHSY [peptide 167], in experiment [2] (HLA-A1 mice, two experiments), the “IFN-γ response (ELISPOT)” value is recorded as “very strong; also recorded: highly immunogenic”.
Regarding “FLLHKYRVK [peptide 118, MAGE-A9 peptide antigen]”, in experiment [3] (only with peptide-loaded DC), the “IFN-γ response (ELISPOT)” value is recorded as “good reactivity”.
Take “FLWGSKAHA [MAGE-A9 270, MAGE-A9 peptide antigen]”: the “CTL response (51Cr-release)” value in experiment [4] is listed as “elicited a response”. In addition, in experiment [5], the “binding to MHC class 1 allele A*02:01 (in words)” value (from here on “binding … (in words)”) is “high binding”.
Take “FMFQEALKL [peptide 102, MAGE-A9 peptide antigen]”: the “IFN-γ response (ELISPOT)” value in experiment [1] is on record as “highest; also recorded: consistently observed”. The “IFN-γ response (ELISPOT), significance” value in experiment [1] (splenocytes stimulated with peptide-loaded DCs) is on record as “statistically significant in two out of three experiments”.
With “GLMGAQEPT [MAGE-A9 24, MAGE-A9 peptide antigen]”, the “CTL response (51Cr-release)” value in experiment [4] is listed as “elicited a response”.
Regarding “IVLGVILTK [peptide 203, MAGE-A9 peptide antigen]”, the “IFN-γ response (ELISPOT)” value in experiment [3] (restimulated with peptide alone) is recorded as “weak but significant reactivity”.
In the case of KVAELVHFL [MAGE-A9 111], in experiment [4], the “specific lysis compared to M9-A2-270” value was “higher specific lysis” and the “CTL response (51Cr-release)” value is “elicited a response”. In addition, in experiment [1], the “IFN-γ response (ELISPOT)” value is listed as “consistently higher”. For the same sequence, in experiment [5], the “binding affinity compared to M9-A2-270” value is “lower binding affinity” and the “binding … (in words)” value is on record as “high binding”. Besides, the HLA-A2 binding entry in the experiment with HLA-A2 is on record as “high affinity binding”. For the same sequence, the “IFN-γ response (ELISPOT)” value in experiment [2] (first experiment, peptide-loaded DC (FIG. 14A), not observed in the 2nd experiment) is recorded as “moderate response”.
As to “LMLGEFLKL [SurA2.M, survivin peptide antigen HLA-A2]”, the “binding … (in words)” value in experiment [5] is “high binding”. Besides, the HLA-A2 binding entry with HLA-A2 is recorded as “high affinity binding”.
As to NYKRYFPVI [peptide 141], the “IFN-γ response (ELISPOT)” value in experiment [6] was “interesting; also recorded: highest responder; also recorded: good immune responses; also recorded: stronger and more consistent results”.
On to “STFKNWPFL [SurA24, survivin peptide antigen HLA-A24]”, for which the “binding … (in words)” value in experiment [5] is reported as “high binding”. In experiment [5] (MHC class 1 allele A*02:01), the Kinetic score was 0.00, the “On-rate T1/2” value is given as 31.52 h and the R-score was 0.00. Besides, the “Off-rate T1/2” value in experiment [5] (MHC class 1 allele A*02:01, * = no significant, stable complex at end of measurement period) came to 7.2 min. The REVEAL score in experiment [5] (MHC class 1 allele A*02:01, Positive Control 100) came to 61.93.
On to “SVMGVYVGK [peptide 225, MAGE-A9 peptide antigen]”, for which the “IFN-γ response (ELISPOT)” value in experiment [3] (HLA-A11 mice, peptide-loaded DC or peptides alone) is listed as “very strong; also recorded: very immunogenic”.
On to SYILVTALG [compound 174], for which the “IFN-γ response (ELISPOT)” value in experiment [6] was “interesting; also recorded: good immune responses”.
VYYTLWSQF [compound 71]: in experiment [6], the “IFN-γ response (ELISPOT)” value was “interesting”.

The record behind these values is patent US20240390468A1, “SURVIVIN AND MAGE-A9 DUAL-TARGETED IMMUNOTHERAPY” (IMMUNOVACCINE TECHNOLOGIES INC., priority 2022, published 2024).
